Experimental data as given in patent US11147883B2, “Targeted delivery of drugs, therapeutic nucleic acids and functional nucleic acids to mammalian cells via intact killed bacterial cells” (EnGeneIC Molecular Delivery Pty Ltd, priority 2006, dated 2021).

Test system: human breast cancer cells MDA-MB-468 xenograft
Assay: Human breast cancer MDA-MB-468 xenograft in nude mice, i.v. treatment, tumor volume
Assay type: in vivo, Balb/c nu/nu mice
Conditions: i.v. doses on days 21, 28 and 34, 1×10^8 bacteria/dose or free Doxorubicin 7 mg/kg
Protocol: An anti-EGFR monoclonal antibody was selected because the xenografted cells were human breast cancer cells MDA-MB-468 that are known to overexpress the EGF receptor on the cell surface.
Human breast adenocarcinoma cells (MDA-MB-468, ATCC; human mammary epithelial cells; non-phagocytic) were grown in tissue culture to full confluency in T-75 flasks in RPMI 1640 medium supplemented with 5% Bovine Calf Serum (GIBCO-BRL Life Technologies, Invitrogen Corporation, Carlsbad, Calif., USA) and glutamine (Invitrogen) in a humidified atmosphere of 95% air and 5% CO2 at 37° C. 1×10^6 cells in 50 uL serum-free media together with 50 uL growth factor reduced matrigel (BD Biosciences, Franklin Lakes, N.J., USA) were injected subcutaneously between the shoulder blades of each mouse using a 23-gauge needle. The tumors were measured twice a week using an electronic digital caliper (Mitutoyo, Japan, precision to 0.001) and mean tumor volume was calculated using the formula, length (mm)×width^2 (mm)×0.5=volume (mm^3). 16 days post-implantation, the tumors reached volumes between 40 mm^3 and 70 mm^3, and mice were randomized to four different groups of five per group.
The experiment was designed as follows. Group 1 (control) received an i.v. dose of 100 μl of sterile physiological saline. Group 2 (control) received an i.v. dose of free Doxorubicin (7 mg/kg of mouse body weight). […]

**Q.** Which “anti-tumor effect (tumor volume, FIG. 1)” value does the source give for `COc1cccc2c1C(=O)c1c(O)c3c(c(O)c1C2=O)C[C@@](O)(C(=O)CO)C[C@@H]3O[C@H]1C[C@H](N)[C@H](O)[C@H](C)O1` [free doxorubicin, Doxorubicin] here?
**A.** no anti-tumor effects
